Experimental findings from patent US12358890B2, “Substituted tetrahydroisoquinoline derivative as a D1 positive allosteric modulator” (UCB Biopharma SRL, priority 2019, dated 2025) are described below.

Structures are written as SMILES. pEC50: −log10 of the molar value.

The target in data set [1] is T1, dopamine D1 receptor (Homo sapiens, UniProt P21728).
T1 construct: host or cells: LMtk (Ltk-) mouse fibroblast cells
The data set is described as follows: cAMP HTRF potentiation assay (in the presence of EC20 dopamine). It is filed as cell-based. The settings on record: for pEC50: potentiation of cAMP levels with EC20 dopamine (1.1 nM), LMtk (Ltk-) mouse fibroblast cells expressing the dopamine D1 receptor; for Emax: with EC20 dopamine, dopamine maximum = 100%, read-out: Erel (relative efficacy, maximal % potentiation relative to dopamine maximal response). The source says:
Assays have been designed to measure the effects of compounds in accordance with the present invention in the absence of dopamine (“activation assay”) and in the presence of dopamine (“potentiation assay”).
The potentiation assay measures the ability of compounds to increase the levels of cAMP produced by a low-threshold concentration of dopamine. The concentration of dopamine used ([EC20]) is designed to produce 20% stimulation compared to the maximal response (100%) seen with increasing the concentration of dopamine. To measure this potentiation increasing concentrations of the compound with the [EC20] of dopamine are incubated and the potentiation is measured as increases in cAMP production and concentration of compound which produces 50% of the potentiation of the cAMP levels is measured.
• a. METHODS D1 Cell Culture Cells were cultured at 37° C. in a humidified atmosphere of 5% CO2. Cells were grown in DMEM-F12+GlutaMAX™-I medium (GIBCO®, Invitrogen, Merelbeke, Belgium) containing 10% fetal bovine serum (BioWhittaker®, Lonza, Verviers, Belgium), 400 μg/mL Geneticin (GIBCO®), 100 IU/mL Penicillin and 100 IU/mL Streptomycin (Pen-Strep solution, BioWhittaker®). […] Using homogenous time-resolved fluoresence technology, the assay is based on competition between native cAMP produced by cells and cAMP labelled with the dye d2. The tracer binding is determined by an anti-cAMP antibody labeled with cryptate. The effects of the compound alone (agonism) was determined by performing the assay in the absence of dopamine, whilst the effect of the compound as a positive allosteric modulator (PAM) was determined in the presence of an EC20 concentration of dopamine. Cells (20,000 per well) are incubated in 384 plates for 1 hour at room temperature in a final volume of 20 μL HBSS (Lonza, with calcium, magnesium and HEPES buffer 20 mM, pH 7.4) containing: isobutyl methylxanthine (Sigma, 0.1 mM final), varying concentrations of test compound (typically 10^−9.5M to 10^−4.5M) in the presence and absence of dopamine (1.1 nM final). The reaction is then terminated and the cells lysed by adding the d2 detection reagent in lysis buffer (10 microL) and the cryptate reagent in lysis buffer (10 microl) according to manufacturer's instructions. This is then incubated for a further 60 min at room temperature and changes in HTRF fluorescent emission ratio determined according to manufacturer's instructions using an Envision plate reader (Perkin Elmer, Zaventem, Belgium) with laser excitation. All incubations were performed in duplicate and results were compared to a concentration-effect curve to dopamine. (10^−11M to 10^−6M). • c. […]

The target of data set [2] is T2, human GABAA (α1β2γ2) channels (Homo sapiens, UniProt P14867+P18507+P47870).
T2 construct: expressed in transfected cells; host or cells: CHO-K1 cells
T2 sequence (P14867 28-456): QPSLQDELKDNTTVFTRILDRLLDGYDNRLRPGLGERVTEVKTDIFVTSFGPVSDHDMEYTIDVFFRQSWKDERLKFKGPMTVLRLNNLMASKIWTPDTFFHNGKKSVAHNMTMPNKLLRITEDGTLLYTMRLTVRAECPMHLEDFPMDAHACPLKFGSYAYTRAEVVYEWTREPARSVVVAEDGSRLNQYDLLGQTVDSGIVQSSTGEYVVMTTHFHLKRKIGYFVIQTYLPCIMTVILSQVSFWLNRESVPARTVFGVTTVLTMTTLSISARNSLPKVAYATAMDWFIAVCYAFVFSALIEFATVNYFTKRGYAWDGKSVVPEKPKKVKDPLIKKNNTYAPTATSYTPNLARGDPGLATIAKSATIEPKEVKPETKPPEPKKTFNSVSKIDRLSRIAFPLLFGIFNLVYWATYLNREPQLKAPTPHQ
T2 sequence (P47870 25-512 limits assumed): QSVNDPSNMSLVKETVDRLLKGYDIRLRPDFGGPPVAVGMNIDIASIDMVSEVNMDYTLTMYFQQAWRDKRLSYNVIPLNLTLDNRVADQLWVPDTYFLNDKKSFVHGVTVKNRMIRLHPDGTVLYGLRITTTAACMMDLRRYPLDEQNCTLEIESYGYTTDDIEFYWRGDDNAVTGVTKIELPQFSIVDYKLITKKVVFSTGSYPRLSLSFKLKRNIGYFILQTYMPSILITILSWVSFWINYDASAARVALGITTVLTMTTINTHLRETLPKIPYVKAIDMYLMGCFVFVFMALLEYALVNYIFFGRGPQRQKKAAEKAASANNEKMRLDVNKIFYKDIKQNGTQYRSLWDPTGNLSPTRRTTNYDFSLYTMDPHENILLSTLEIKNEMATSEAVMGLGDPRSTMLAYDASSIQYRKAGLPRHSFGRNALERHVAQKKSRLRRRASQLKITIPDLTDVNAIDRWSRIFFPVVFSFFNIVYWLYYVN
T2 sequence (P18507 40-475): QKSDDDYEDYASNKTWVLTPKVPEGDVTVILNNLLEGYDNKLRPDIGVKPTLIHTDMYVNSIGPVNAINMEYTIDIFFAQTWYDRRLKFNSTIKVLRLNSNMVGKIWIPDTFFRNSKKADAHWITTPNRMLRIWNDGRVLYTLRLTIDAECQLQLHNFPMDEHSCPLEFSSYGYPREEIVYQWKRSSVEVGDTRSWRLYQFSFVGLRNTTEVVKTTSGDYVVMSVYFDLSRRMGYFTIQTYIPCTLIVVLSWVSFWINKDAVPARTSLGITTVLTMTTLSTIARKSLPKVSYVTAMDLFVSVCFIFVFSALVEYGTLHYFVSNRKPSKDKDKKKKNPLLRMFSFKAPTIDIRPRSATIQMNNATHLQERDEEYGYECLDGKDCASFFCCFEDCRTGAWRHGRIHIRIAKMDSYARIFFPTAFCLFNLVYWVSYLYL
The data set is described as follows: Automated patch clamp studies on the GABAA receptor (IonFlux HT, CHO-K1 cells). In kind it is cell-based. The settings on record: compound at 10 μM, GABA 15 μM as agonist, read-out: percentage of inhibition of the GABAA receptor.

Data set [3] is described as follows: Intrinsic clearance in cryopreserved human hepatocyte suspension (Azamulin Assay). In kind it is in vitro ADME. As to the method:
The clearance is generally evaluated by using hepatocyte incubations and scaling calculations, assuming the main elimination pathway is metabolism, according to protocols described herein. The intrinsic clearance evaluated from hepatocytes is expressed in μl/min/10^6 cells.
To this aim, cryopreserved human microsomes (pooled donors) are divided on a 48 well collagen coated plate so that the final concentration is 0.25 mg/ml. The UCB compound is then added in the wells at 1 μM and 20 μM concentration in duplicate. After 30 minutes incubation, midazolam is added at 2.5 μM concentration. After 15 minutes, an aliquot is removed and placed into an equal volume of methanol containing internal standard. The samples are centrifuged at 2500 rpm at 4° C. for 20 min. An aliquot of supernatant is diluted with deionised water and levels of 1-hydroxymidazolam is quantified using generic LC MS/MS methods. The concentrations are compared to those obtained after midazolam incubation at the same concentration but without UCB compound pre-incubation. The results are expressed as % of inhibition. […]
Samples are analyzed by LC-MS-MS bioanalytical method to measure the concentration of UCB compound. The concentration versus time profile is fitted to determine the intrinsic clearance (Clint) expressed as μl/min/10^6 cells.

In data set [4] the target is T3, CYP3A4 (Homo sapiens, UniProt P08684).
T3 construct: cryopreserved human microsomes (pooled donors) are divided on a 48 well collagen coated plate; from tissue; host or cells: cryopreserved human microsomes (pooled donors)
T3 sequence (P08684 whole entry): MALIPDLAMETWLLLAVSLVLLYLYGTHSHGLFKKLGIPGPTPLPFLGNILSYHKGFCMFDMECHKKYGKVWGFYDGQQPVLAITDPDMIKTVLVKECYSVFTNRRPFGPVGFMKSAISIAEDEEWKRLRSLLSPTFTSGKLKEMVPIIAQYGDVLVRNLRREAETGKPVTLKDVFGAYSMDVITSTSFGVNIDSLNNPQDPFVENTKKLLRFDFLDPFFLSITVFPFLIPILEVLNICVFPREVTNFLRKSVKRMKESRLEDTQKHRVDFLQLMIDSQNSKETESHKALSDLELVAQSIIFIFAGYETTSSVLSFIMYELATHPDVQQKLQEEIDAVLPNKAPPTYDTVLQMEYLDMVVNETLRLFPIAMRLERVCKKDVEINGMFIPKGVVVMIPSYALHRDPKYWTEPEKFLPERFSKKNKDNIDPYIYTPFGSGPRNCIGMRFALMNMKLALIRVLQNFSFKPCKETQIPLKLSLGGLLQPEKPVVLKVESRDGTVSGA
The data set is described as follows: In vitro assessment of CYP3A4 inhibition potential using cryopreserved human microsomes (midazolam substrate). In kind it is in vitro ADME. Conditions: cryopreserved human microsomes (pooled donors), probe midazolam 2.5 μM, read-out: percentage of inhibition of CYP3A4. As to the method:
The objective of the human microsome assay is to characterize the inhibition potential of Compound of formula (I) by measuring the CYP3A4 activities after its co-incubation with midazolam, a specific CYP3A4 substrate.
To this aim, cryopreserved human microsomes (pooled donors) are divided on a 48 well collagen coated plate so that the final concentration is 0.25 mg/ml. The UCB compound is then added in the wells at 1 μM and 20 μM concentration in duplicate. After 30 minutes incubation, midazolam is added at 2.5 μM concentration. After 15 minutes, an aliquot is removed and placed into an equal volume of methanol containing internal standard. The samples are centrifuged at 2500 rpm at 4° C. for 20 min. An aliquot of supernatant is diluted with deionised water and levels of 1-hydroxymidazolam is quantified using generic LC MS/MS methods. The concentrations are compared to those obtained after midazolam incubation at the same concentration but without UCB compound pre-incubation. The results are expressed as % of inhibition. […] Azamulin Assay Cryopreserved human hepatocytes (pool of 20 donors, BSU batch from Celsis/IVT/Bioreclamation) were thawed accordingly the provider's information. Viability (trypan blue exclusion) was higher than 75%. […]

T1 sequence (P21728 whole entry, species assumed): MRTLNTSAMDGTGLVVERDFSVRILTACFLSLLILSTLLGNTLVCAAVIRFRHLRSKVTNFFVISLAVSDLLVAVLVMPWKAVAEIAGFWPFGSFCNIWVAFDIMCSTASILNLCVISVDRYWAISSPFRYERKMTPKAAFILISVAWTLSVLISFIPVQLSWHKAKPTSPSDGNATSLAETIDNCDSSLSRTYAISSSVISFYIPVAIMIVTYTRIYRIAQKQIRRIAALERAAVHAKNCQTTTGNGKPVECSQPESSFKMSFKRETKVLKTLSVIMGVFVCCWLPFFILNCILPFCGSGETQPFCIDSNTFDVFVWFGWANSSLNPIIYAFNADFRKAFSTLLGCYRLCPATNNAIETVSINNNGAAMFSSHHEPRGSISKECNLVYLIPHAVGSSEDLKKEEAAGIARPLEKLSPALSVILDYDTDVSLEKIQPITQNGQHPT

For the compound `CC1c2cccc(C(C)(O)CF)c2CCN1C(=O)Cc1c(Cl)cnc(CO)c1Cl` (stereo not shown) [(Ib)], in data set [1], the pEC50 (as a rule, −log10 of the EC50, conventionally taken in molar units) is around 6.70 and the Emax was around 61%. For the same compound, in data set [2], the inhibition (in general, the drop in the measured response relative to a control, in per cent) at 10 µM is around 20%. In addition, the hepatocyte CLint (usually the rate of metabolic loss divided by the concentration) at 0.5 μM in data set [3] was around 9.2 µL/min/1e6 cells.
For `C[C@H]1c2cccc([C@](C)(O)CF)c2CCN1C(=O)Cc1c(Cl)cnc(CO)c1Cl` [compound of formula (Ia), 2-[3,5-dichloro-2-(hydroxymethyl)-4-pyridyl]-1-[(1S)-5-[(1S)-2-fluoro-1-hydroxy-1-methyl-ethyl]-1-methyl-3,4-dihydro-1H-isoquinolin-2-yl]ethanone], in data set [1], the negative-log EC50 (pEC50) is around 6.90 and the Emax is around 64%. In addition, in data set [2], the inhibition at 10 µM is around 13%. The inhibition at 15 min, 1 μM in data set [4] (compound at 1 μM) is around 20%. In addition, the inhibition at 15 min, 20 μM in data set [4] (compound at 20 μM) is around 28%. Moreover, the intrinsic metabolic clearance (hepatocyte CLint) at 0.5 μM in data set [3] is around 8.8 µL/min/1e6 cells.
